In patent US8101634B2, “Bicyclic compounds and use as antidiabetics” (GlaxoSmithKline LLC, priority 2006, dated 2012):

Tests used:
C57BI6/J mice = test: Oral glucose tolerance test (OGTT) in normal mice one hour after oral administration; assay type: in vivo; settings: for glucose area-under-the curve (AUC) over the 120 minute time course, result in words: OGTT in mice, vs vehicle; for % of Vehicle (glucose cAUC): OGTT one hour after p.o. dosing; for % of Vehicle (glucose cAUC) / Glucose cAUC (baseline corrected glucose area under the curve during OGTT): Examples 30 mg/kg, vildagliptin 10 mg/kg, n=10; for Glucose cAUC (baseline corrected glucose area under the curve during OGTT): fasted male C57BI6/J mice, OGTT 2 g dextrose/kg one hour after p.o. dosing, mean ± s.e.m., 120 min
Experimental: In Vivo Effects of GPR119 Agonists on Incretin Hormone Release and Glucose Homeostasis in Mice
Vehicle or compounds were delivered orally via a gavage needle (p.o. at 10 mls/kg). The effect of the GPR119 agonists on glucose homeostasis was assessed by conducting an oral glucose tolerance test (OGTT; 2 g dextrose per kg body weight) one hour after administration of vehicle or test compounds. Whole blood glucose levels were determined prior to compound administration, immediately before and 10, 20, 30, 45, 60, 90 and 120 after glucose administration, using a Glucometer (Freestyle, Therasense).
Table 1 summarizes the glucose excursions during the OGTT as the average baseline corrected glucose area under the curve (cAUC; ±s.e.m.) from the animals in each treatment group.

C57/BI6 mice = test: Plasma total GLP-1 and total GIP in normal mice one hour after oral administration; assay type: in vivo; settings: for total circulating GIP levels, result in words / total circulating GLP-1 levels, result in words: 1 hr after giving the compound, compared to vehicle; for Total GIP (plasma) / Total GLP-1 (plasma) / Total GIP, fold change vs. Vehicle / Total GLP-1, fold change vs. Vehicle: C56BI6/J mice, one hour following oral administration of 30 mg/kg; for Total GIP (plasma) / Total GLP-1 (plasma): fasted, mean ± s.e.m.
Experimental: GPR119 Agonists Elevate GIP and GLP-1 in Normal Mice
Male C57/BI6 mice 10 weeks of age were fasted for 15 hrs and randomly grouped (n=6-10) to receive vehicle (0.5% HPMC/0.1% Tween) or a GPR119 agonists of the present invention at 30 mg/kg. 1 hr after compound administration blood was collected by cardiac-stick following iso-fluorane aneasthesia. Blood for analysis of plasma levels of total GLP-1 and total GIP was placed in a K2-EDTA containing tubes supplemented with a DPP-IV inhibitor to prevent degradation of the incretin hormones (30 µM final concentration). Total GLP-1 was determined using an assay from Meso Scale Discovery (Gaithersburg, Md.). GIP was determined using an ELISA assay from Linco (St. Charles, Mo.). For each treatment group Table 2 summarizes the average plasma levels of total GLP-1 (±s.e.m.) from the number of animals in each treatment group as indicated.
Table 3 summarizes the average plasma levels of total GIP (±s.e.m.) from the number of animals in each treatment group as indicated.

## CC(C)OC(=O)N1CCC(COc2ccc(-c3ccc(S(C)(=O)=O)cc3F)nc2)CC1 [Example 77, 1-Methylethyl 4-[({6-[2-fluoro-4-(methylsulfonyl)phenyl]-3-pyridinyl}oxy)methyl]-1-piperidinecarboxylate]
C57BI6/J mice
  glucose area-under-the curve (AUC) over the 120 minute time course, result in words: significantly lowered
  % of Vehicle (glucose cAUC): 21%
  Glucose cAUC (baseline corrected glucose area under the curve during OGTT): 6884 ± 694 mg·min/dL
C57/BI6 mice
  total circulating GIP levels, result in words: increase
  total circulating GLP-1 levels, result in words: increase
  Total GIP (plasma): 182 ± 12 pg/mL
  Total GLP-1 (plasma): 7.5 ± 2.0 pg/mL
  Total GIP, fold change vs. Vehicle: 2.2
  Total GLP-1, fold change vs. Vehicle: 3.3

## CC(C)c1noc(N2CCC(COc3ccc(-c4ccc(S(C)(=O)=O)cc4F)nc3)CC2)n1 [Example 83, 2-[2-Fluoro-4-(methylsulfonyl)phenyl]-5-[({1-[3-(1-methylethyl)-1,2,4-oxadiazol-5-yl]-4-piperidinyl}methyl)oxy]pyridine]
C57BI6/J mice
  glucose area-under-the curve (AUC) over the 120 minute time course, result in words: significantly lowered
  % of Vehicle (glucose cAUC): 23%
  Glucose cAUC (baseline corrected glucose area under the curve during OGTT): 6754 ± 286 mg·min/dL
C57/BI6 mice
  total circulating GIP levels, result in words: increase
  total circulating GLP-1 levels, result in words: increase
  Total GIP (plasma): 275 ± 29 pg/mL
  Total GLP-1 (plasma): 6.8 ± 1.8 pg/mL
  Total GIP, fold change vs. Vehicle: 3.3
  Total GLP-1, fold change vs. Vehicle: 3.0
